# Experimental data as given in patent US9404933B2, “Methods for determining patient response to anti-platelet aggregation therapy” (INVITROX, INC., priority 2011, dated 2016).
# Read-outs that look alike come from different tables or passages of the source.
# What was measured:
# [1] = tested on: ADP-induced platelet aggregation; details: cited from earlier work; for inhibition of platelet aggregation: patients with ischaemic heart disease, measured at 4 min after addition of 10 μM ADP
# [2] = tested on: human platelets; assay: Focused light scattering size distribution of platelets and microparticles after activation; format: cell-based; details: normal resting human platelets versus activated; FIG. 8 / FIG. 9
# From the text: FIG. 8 is a chart showing the result of the activation of platelets using thrombin receptor activating peptide (TRAP), where platelets are enlarged when activated, and also give off microparticles (MPs).
# FIG. 9 is a chart showing the result of the activation of platelets using a calcium ionophore, which destroys platelets, and also causes the platelets to give off microparticles (MPs). Treated and untreated platelet size distributions are shown. What is observed is as the number of platelets decreases, the number of MPs increases.
# The ionophore basically destroys the platelet to produce many more MPs. Treated and untreated platelet size distributions are shown. What is observed is as the number of platelets decreases, the number of MPs increases.
# [3] = in vivo; cited from earlier work
# [4] = tested on: P2Y12-dependent platelet function; details: added in vitro to blood from clopidogrel treated patients; cited from earlier work
smiles,measurement,setting,value
"COC(=O)[C@H](c1ccccc1Cl)N1CCc2sccc2C1 [Plavix, clopidogrel bisulfate]",delayed onset of action,[1]; loading dose of 300-600 mg,two to five
same,inhibition of platelet aggregation,[1]; 4 to 7 days treatment,approximately 60%
CNc1ccc2oc(C[C@H]3O[C@@]4(CC[C@H]3C)O[C@H]([C@H](C)C(=O)c3ccc[nH]3)[C@H](C)C[C@H]4C)nc2c1C(=O)O [calcium ionophore],microparticles (MPs) formed on activation of platelets,[2],many more MPs
CSCCNc1nc(SCCC(F)(F)F)nc2c1ncn2[C@@H]1O[C@H](COP(=O)(O)OP(=O)(O)C(Cl)(Cl)P(=O)(O)O)[C@@H](O)[C@H]1O [cangrelor],half-life,[3],2.6 min
same,inhibition of platelet aggregation,[1]; infusion at 2 and 4 μg/mL/min,near complete inhibition
same,inhibition of P2Y12-dependent platelet function,[4],near complete inhibition
"CC(=O)Oc1cc2c(s1)CCN(C(C(=O)C1CC1)c1ccccc1F)C2 (stereo not drawn) [Prasugrel, 2-acetoxy-5-[alpha-cyclopropylcarbonyl-2-fluorobenzyl]-4,5,6,7-tetrahydrothieno[3,2-c]pyridine]",inhibition of ADP-induced platelet aggregation,"[1]; cross-over study, 60 mg loading dose, also in subjects who responded poorly to a standard loading dose of Clopidogrel","rapid and highgrade, irreversible inhibition"
